# Assay results: US20080200491A1, “1,2-Dihydro-Spiro[3H-Indole-3,4'-Piperidine] Compounds, as Modulators of the Mas Receptor Novel” (priority 2005, published 2008)
# “Also recorded” adds a separate entry of the source.
# What was measured:
# blood pressure in rats = assay: Blood pressure measurement in rats by telemetry; type: in vivo, rat; details: conscious rats, IP injection, FIG. 5
# Method: Cardiac parameters were measured by small transmitting devices, (Data Sciences PhysioTel Telemetry devices), implanted in rats. The implanted transmitting devices were used to measure blood pressure in freely moving conscious animals. There are no external connections or tethering devices that can inhibit animal movement and induce unnecessary stress, which can affect the outcome of a study.
# This procedure was performed under modified aseptic conditions. Rats were anesthetized with Isoflurane gas that ranged in concentration from 1.5-2.0%. A cardiac telemetry device was implanted into the peritoneal cavity with a pressure sensing catheter situated no more than 2 cm inside the descending aorta. This was accomplished as follows: The rat was shaved and the incision site was prepared with an iodine solution. The rat was then placed on a heating pad to maintain a constant body temp of 38+/−0.5° C., and covered with a sterile drape. A 6 cm midline abdominal incision was made to provide access to the implantation area. […] The rats were monitored for 7 days to ensure proper recovery.
# On the test day, injections with either vehicle or with test compound were administered via IP injection in volumes of ˜250 μl. Animals were monitored with a resolution of approximately one measurement/min for 60 minutes before injection of vehicle or compound and for about 120 minutes after injection.
# Mas receptor [1] = molecular target: T1, Mas receptor (Homo sapiens, UniProt P04201); details: Dong et al., Cell 2001; cited from earlier work
# T1 sequence (P04201 1-325): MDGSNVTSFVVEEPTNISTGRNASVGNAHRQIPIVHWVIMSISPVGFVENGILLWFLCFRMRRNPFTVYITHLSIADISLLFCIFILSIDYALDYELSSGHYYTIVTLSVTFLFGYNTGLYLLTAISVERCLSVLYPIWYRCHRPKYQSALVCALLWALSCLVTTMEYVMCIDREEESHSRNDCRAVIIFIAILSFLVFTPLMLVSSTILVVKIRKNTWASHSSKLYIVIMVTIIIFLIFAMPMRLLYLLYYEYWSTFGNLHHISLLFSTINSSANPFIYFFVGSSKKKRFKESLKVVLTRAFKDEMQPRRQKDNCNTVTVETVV
# Mas receptor [2] = details: Santos et al., PNAS 2003; cited from earlier work
# Mas receptor [3] = molecular target: T1, Mas receptor; assay: Mas receptor IP3 assay (inverse agonist assay); type: cell-based; set-up: expressed in transfected cells; details: for IC50: n = 2
# Method: The Mas receptor IP3 assay was performed using a mammalian cell line (HEK293) which was transfected with a plasmid containing the human Mas receptor and selected for stable expression of the receptor. […] To achieve this, Mas receptor expression levels were increased by transiently transfecting the same Mas receptor stable cell line with additional human Mas receptor plasmid DNA following standard procedures. These cells were used in the Mas receptor IP3 assay approximately 24 hours post-transfection.
# Cells were split into 96-well plates (50,000 cells/well) and allowed to attach for a period of 6 hours. The growth medium was then replaced with medium supplemented with 4 μCi/mL [3H]myo-inositol (100 μl; Perkin Elmer Life Sciences) and the cells were allowed to incubate for approximately 20 hours. Test compounds were serially diluted in inositol-free media containing 10 mM LiCl. The media in the plates was removed by aspiration, replaced with these test compound solutions and incubated at 37° C. for 1 hour.
# Following this incubation, the media was removed by aspiration and replaced with buffer containing 0.1M formic acid. The plates were then frozen overnight at −80° C. to achieve complete cell lysis.
# The following day, the assay plates were thawed at room temperature. The thawed contents were then transferred to 96-well filter plates (Nillipore, Multiscreen) pre-loaded with resin (Biorad, AG1-X8 100-200 mesh, formate form). The plate was filtered using a vacuum manifold and the resin was washed multiple times with water. An elution buffer was then applied (200 μl, 0.2M Ammonium formate/0.1M formic acid) and the resulting eluent was collected, under vacuum, in a 96-well collection plate. Aliquots of the eluent (80 μl) were transferred to filter plates (Whatman, Unifilter GF/C) and dried in a 45° C. oven overnight. Dried plates were counted on a scintillation counter following the addition of an appropriate scintillant (Perkin Elmer Life Sciences, Optiphase Supermix or Hi-Safe 3).
# isolated rat hearts = assay: Ischemia-reperfusion assay in isolated adult rat hearts (Langendorff apparatus)
# Method: Male Sprague-Dawley rats (300-350 g body weight) were anesthetized with Inactin (100 mg/kg IP) 20 minutes prior to surgery. The chest wall was opened and the heart was rapidly excised and immediately placed into ice-cold Krebs-Henseleit (KH) buffer (118 mM NaCl, 4.7 mM KCl, 1.2 mM MgSO4, 1.2 mM KH2PO4, […], 25 mM NaHCO3, 11 mM glucose, 1 mM pyruvate, and 0.005 mM EDTA) to produce cardiac arrest. The aorta was then cannulated and the heart retrogradely perfused with KH buffer maintained at 37° C. in a reservoir bubbled with 95% O2/5% CO2 (pH7.4) on the Langendorff apparatus at a constant pressure of 70 mmHg. Myocardial temperature was maintained at 37° C. by partially submerging the heart into a water-jacketed chamber filled with KH buffer. A water filled latex balloon attached to a metal cannula and inserted into the left ventricle via the mitral valve and connected to a pressure transducer (Powerlab, ADInstruments, Inc) was used for measurement of left ventricular pressure. The balloon was initially inflated to an end-diastolic pressure of 10 mmHg. After allowing 20 minutes for equilibration, rat hearts were subjected to 10 minutes of KH buffer containing drug or vehicle followed by 30 minutes of ischemia followed by 30 minutes of reperfusion. The difference between peak-systolic and end diastolic pressures, or left ventricular developed pressure (LVDP) was calculated as an index of contractile function and measured just prior to ischemia and at 10, and 30 minutes of reperfusion. Percent recovery of LV function [(LVDP post reperfusion/LVDP pre-ischemia)[…]] was averaged across 5 vehicle and 4 drug treated hearts and one-way anova with Newman-Keuls Multiple Comparison Test was used to determine statistical significance.
# Epicardial electrogram recordings were also taken from the isolated rat hearts used in FIGS. 2 and 3. Briefly, silver wire electrodes were placed on the right atrium and the apex of the left ventricle, allowing an epicardial electrogram to be recorded. Premature ventricular contraction (PVC), ventricular tachycardia and ventricular fibrillation were common arrhythmias observed during reperfusion following 30 minutes of global ischemia. Hearts were considered positive for reperfusion arrhythmias if ventricular arrhythmias were sustained for greater than 30 seconds during the first 5 minutes of reperfusion.
# [4] = tested on: isolated rat aortic rings; assay: Angiotensin II induced vasoconstriction in isolated rat aortic rings; details: pretreatment 15 min; Angiotensin II 1 uM; same doses also tested against norepinephrine 1 uM; FIG. 6
# Method: Sprague-Dawley rats (250-300 g) were euthanized via CO2 chamber. […] The excess adventitial tissue was carefully removed and the endothelium was sloughed off by rinsing with buffer via syringe. The vessel was then cut into 2-3 mm rings and mounted on wire stirrups connected to force transducers (World Precision Instruments, Myobath 4 channel system, FORT-10) to record changes in isometric force. The aortic rings were then placed in 15 mL organ baths filled with buffer at 37° C. with continuous aeration (95% O2 and 5% CO2)
# The rings were left to equilibrate in buffer for 30 minutes. A resting tension of 4 g was applied and the rings were allowed to equilibrate for 1 hour. During the equilibration period, the buffer was changed every 30 minutes. After equilibration was complete, the aortic rings were tested for viability and maximal contraction response by addition of 50 mM KCl.
# Aortic rings were contracted with AngiotensinII (1 uM) Sigma, St Louis, Mo. and the isometric force recorded. […] The aortic rings were then treated with the agonist, AngiotensinII (1 uM), and the change in isometric force was recorded. […]
# Data for each group (Compound S75 concentration) was from n=4 aortic rings. Change in aortic tension after AngiotensinII treatment was expressed as a percentage to 50 mM KCL in order to normalize tension for each aortic ring.
compound,measurement,setting,value
"angiotensin II: known vasoconstrictor peptide, control compound in the blood pressure study (DRVYIHPF; Angiotensin-2; UniProt P01019 25-32, looked up) [reference compound]",change in blood pressure after treatment,blood pressure in rats,significant increase in blood pressure
"a peptide called NPFF, reported to bind the Mas receptor weakly and NPFF1/NPFF2 with high affinity",EC50,Mas receptor [1],~400 nM
"DRVYIHP [Ang (1-7), H-Asp-Arg-Val-Tyr-Ile-His-Pro-OH]",Kd,Mas receptor [2],0.33 nM
"CCCN1CCC2(CC1)CN(C(=O)c1c(F)cccc1F)c1ccc(C(C)(C)C)cc12 [Compound 4, 1′-(propyl)-1,2-dihydro-5-tert-butyl-1-(2,6-difluoro-benzoyl)-spiro[3H-indole-3,4′-piperidine]]",IC50,Mas receptor [3],35.1 nM
"CC(C)c1ccc2c(c1)C1(CCN(CCC(F)(F)F)CC1)CN2C(=O)c1c(F)cccc1F [Compound 1, 1′-(3,3,3-trifluoro-propyl)-1,2-dihydro-5-isopropyl-1-(2,6-difluoro-benzoyl)-spiro[3H-indole-3,4′-piperidine]]",IC50,Mas receptor [3],28.6 nM
"C=CCN1CCC2(CC1)CN(C(=O)c1cccc(F)c1F)c1ccc(F)cc12 [Compound S75, 1′-(allyl)-1,2-dihydro-5-fluoro-1-(2,3-difluoro-benzoyl)-spiro[3H-indole-3,4′-piperidine]]",mode of action at the Mas receptor,Mas receptor [3]; FIG. 1,inverse agonist
same,change in blood pressure after treatment,blood pressure in rats,does not raise blood pressure; also recorded: did not result in a significant change in blood pressure
same,left ventricle function after reperfusion compared to vehicle treatment,"isolated rat hearts; 30 μM, 30 min ischemia, 30 min reperfusion, FIG. 2",significant increase in left ventricle function
same,level of left ventricle function after reperfusion versus level before ischemia,"isolated rat hearts; 30 μM, FIG. 2",comparable to the level before ischemia
same,ischemic contracture: end diastolic pressure (EDP) compared to vehicle treatment,"isolated rat hearts; 30 μM, FIG. 3",significant decrease in end diastolic pressure
same,early reperfusion arrhythmias,"isolated rat hearts; ventricular arrhythmias sustained > 30 seconds during first 5 minutes of reperfusion, FIG. 4",none of the four hearts
same,inhibition of angiotensin II induced vasoconstriction,[4],potent and selective inhibition
